Assay results as given in patent publication US20070179060A1, “6-(Poly-substituted aryl)-4-aminopicolinates and their use as herbicides” (priority 2006, published 2007).

Key:
Type in all cases: in vivo
[1] = test system: Matricaria chamomilla; assay: Postemergence herbicidal activity of mixtures in cereal crops; conditions: after 3 weeks
Description: (§1) Seeds of the desired test plant species were planted and reared as described in “Evaluation of Postemergence Herbicidal Safening in Cereal Crops” (section 37).
(§2) Treatments consisted of compound (as listed in Tables 6 and 7), fluroxypyr methylheptyl ester (MHE), and clopyralid monoethanolamine (MEA) salt alone and in combination. Weighed amounts were placed in 25 mL glass vials and dissolved in a volume of 97:3 v/v acetone/DMSO to obtain 4.5 mg ai/mL stock solutions. […] The concentrated stock solutions were diluted to 1.5 mg ai/mL with the addition of 2 volumes of an aqueous mixture containing acetone, water, isopropyl alcohol, DMSO, Agri-dex crop oil concentrate, and Triton® X-77 surfactant in a 64.7:26.0:6.7:2.0:0.7:0.01 v/v ratio. A dilution solution was prepared by mixing 1 volume of 97:3 v/v acetone/DMSO and 2 volumes of an aqueous mixture containing acetone, water, isopropyl alcohol, DMSO, Agri-dex crop oil concentrate, and Triton® X-77 surfactant in a 64.7:26.0:6.7:2.0:0.7:0.01 v/v ratio. Compound requirements are based upon a 12 mL application volume at a rate of 187 L/ha. Spray solutions of fluroxypyr MHE, clopyralid MEA, and experimental compound mixtures were prepared by adding the stock solutions to the appropriate amount of dilution solution to form 12 mL spray solution with active ingredients in two- and three-way combinations. Formulated compounds were applied to the plant material with an overhead Mandel track sprayer equipped with a 8002E nozzles calibrated to deliver 187 L/ha over an application area of 0.503 square meters at a spray height of 18 inches (43 cm) above average plant canope. Control plants were sprayed in the same manner with the solvent blank.
(§3) The treated plants and control plants were placed in a greenhouse as described above and watered by sub-irrigation to prevent wash-off of the test compounds. After 3 weeks the condition of the test plants as compared with that of the control plants was determined visually and scored on a scale of 0 to 100 percent where 0 corresponds to no injury and 100 corresponds to complete kill.
(§4) Colby's equation was used to determine the herbicidal effects expected from the mixtures (Colby, S. R. 1967. Calculation of the synergistic and antagonistic response of herbicide combinations. Weeds 15:20-22.).
(§5) The following equation was used to calculate the expected activity of mixtures containing two active ingredients, A and B: Expected=A+B−(A×B/100) • A=observed efficacy of active ingredient A at the same concentration as used in the mixture. • B=observed efficacy of active ingredient B at the same concentration as used in the mixture.
(§6) The following equation was used to calculate the expected activity of mixtures containing three active ingredients, A, B, and C: Expected=A+B+C−(A×B+B×C+A×C)/100+(A×B×C)/10000 • A=observed efficacy of active ingredient A at the same concentration as used in the mixture. • B=observed efficacy of active ingredient B at the same concentration as used in the mixture. • C=observed efficacy of active ingredient C at the same concentration as used in the mixture.

[2] = test system: Triticum aestivum (spring wheat); assay: as above; conditions: after 3 weeks
Description: as §1, §2, §3, §4, §5, §6

[3] = test system: Hordeum vulgare (winter barley); assay: as above; conditions: after 3 weeks
Description: as §1, §2, §3, §4, §5, §6

[4] = test system: Triticum aestivum (spring wheat); assay: Postemergence herbicidal safening in cereal crops; conditions: Table 5, applied alone, after 3 weeks
Description: (§7) Seeds of the desired test plant species were planted in Sun Gro MetroMix® 306 planting mixture, which typically has a pH of 6.0 to 6.8 and an organic matter content of about 30 percent, in plastic pots with a surface area of 103.2 square centimeters. When required to ensure good germination and healthy plants, a fungicide treatment and/or other chemical or physical treatment was applied. The plants were grown for 7-36 days in a greenhouse with an approximate 14 hour photoperiod which was maintained at about 18° C. during the day and 17° C. during the night. Nutrients and water were added on a regular basis and supplemental lighting was provided with overhead metal halide 1000-Watt lamps as necessary. The plants were employed for testing when they reached the second or third true leaf stage. Treatments consisted of compound 42 and cloquintocet-mexyl alone and in combination. Weighed amounts were placed in 25 mL glass vials and dissolved in a volume of 97:3 v/v acetone/DMSO to obtain 9 mg ai/mL stock solutions. […] A dilution solution was prepared by mixing 1 volume of 97:3 v/v acetone/DMSO and 2 volumes of an aqueous mixture containing acetone, water, isopropyl alcohol, DMSO, Agri-dex crop oil concentrate, and Triton® X-77 surfactant in a 64.7:26.0:6.7:2.0:0.7:0.01 v/v ratio. Compound requirements are based upon a 12 mL application volume at a rate of 187 L/ha. […] Formulated compounds were applied to the plant material with an overhead Mandel track sprayer equipped with a […] nozzles calibrated to deliver 187 L/ha over an application area of 0.503 square meters at a spray height of 18 inches (43 cm) above average plant canopy height. Control plants were sprayed in the same manner with the solvent blank. The treated plants and control plants were placed in a greenhouse as described above and watered by sub-irrigation to prevent wash-off of the test compounds. After 3 weeks the condition of the test plants as compared with that of the untreated plants was determined visually and scored on a scale of 0 to 100 percent where 0 corresponds to no injury and 100 corresponds to complete kill. Colby's equation was used to determine the herbicidal effects expected from the mixtures (Colby, S. R. 1967. Calculation of the synergistic and antagonistic response of herbicide combinations. Weeds 15:20-22.). The following equation was used to calculate the expected activity of mixtures containing two active ingredients, A and B: Expected=A+B-(A×B/100) • A=observed efficacy of active ingredient A at the same concentration as used in the mixture. • B=observed efficacy of active ingredient B at the same concentration as used in the mixture.

[5] = test system: Hordeum vulgare (winter barley); assay: Postemergence herbicidal safening in cereal crops; conditions: Table 5, applied alone, after 3 weeks
Description: as §7

[6] = test system: Papaver rhoeas; assay: Postemergence herbicidal safening in cereal crops; conditions: Table 5, applied alone, after 3 weeks
Description: as §7

[7] = test system: Galium aparine; assay: Postemergence herbicidal safening in cereal crops; conditions: Table 5, applied alone, after 3 weeks
Description: as §7

[8] = Table 7, applied alone, 35 g ai/ha
[9] = Table 7, applied alone, 70 g ai/ha
[10] = Table 6, applied alone, 35 g ai/ha

Row | Compound | % Control MATCH Ob [1, 8] [%] | % Control MATCH Ob [1, 9] [%] | % Control TRZAS Ob [2, 8] [%] | % Control TRZAS Ob [2, 9] [%] | % Control HORVW Ob [3, 8] [%] | % Control HORVW Ob [3, 9] [%] | % Control TRZAS Ob ([4]; 35 g ai/ha) [%] | % Control TRZAS Ob ([4]; 70 g ai/ha) [%] | % Control HORVW Ob ([5]; 35 g ai/ha) [%] | % Control HORVW Ob ([5]; 70 g ai/ha) [%] | % Control PAPRH Ob ([6]; 35 g ai/ha) [%] | % Control PAPRH Ob ([6]; 70 g ai/ha) [%] | % Control GALAP Ob ([7]; 35 g ai/ha) [%] | % Control GALAP Ob ([7]; 70 g ai/ha) [%] | % Control MATCH Ob [1, 10] [%] | % Control TRZAS Ob [2, 10] [%] | % Control HORVW Ob [3, 10] [%]
1 | COC(=O)c1nc(-c2ccc(Cl)c(OC)c2F)cc(N)c1Cl [Compound 42, 4-Amino-3-chloro-6-(4-chloro-2-fluoro-3-methoxyphenyl)pyridine-2-carboxylic acid methyl ester] | 50 | 60 | 30 | 45 | 25 | 30 | 35 | 40 | 0 | 15 | 100 | 100 | 99 | 100 | – | – | –
2 | COC(=O)c1nc(-c2c(F)cc(Cl)c(OC)c2F)cc(N)c1Cl [Compound 58, 4-Amino-3-chloro-6-(4-chloro-2,6-difluoro-3-methoxyphenyl)pyridine-2-carboxylic acid, methyl ester] | – | – | – | – | – | – | – | – | – | – | – | – | – | – | 0 | 35 | 15
